Values quoted from earlier work in patent US20210215697A1, “Serum Biomarkers” (BerGenBio ASA, priority 2018, published 2021).

Experiments:
[1] = tested on: MOLM13 cell line
[2] = tested on: Mv4-11 cell line
[3] = tested on: Kasumi cell line
[4] = tested on: OCI-M1 cell line
[5] = tested on: OCI-AML5 cells; settings: Ben-Batalla et al, 2013

Structure (SMILES) | IC50 to Axl inhibitors (in words) ([1]; MOLM13, Ben-Batalla et al, 2013) | IC50 to Axl inhibitors (in words) ([2]; Mv4-11, Ben-Batalla et al, 2013) | IC50 to Axl inhibitors (in words) ([3]; Ben-Batalla et al, 2013) | IC50 to Axl inhibitors (in words) ([4]; OCI-M1, Ben-Batalla et al, 2013) | IC50 to Axl inhibitors (in words) [5] | IC50 ([1]; MOLM13, "responder" AML cell line) [nM] | IC50 ([2]; Mv4-11, "responder" AML cell line) [nM] | IC50 ([3]; "non-responder" AML cell line) [nM] | IC50 ([4]; OCI-M1, "non-responder" AML cell line) [nM]
Nc1nc(Nc2ccc3c(c2)CC[C@@H](N2CCCC2)CC3)nn1-c1cc2c(nn1)-c1ccccc1CCC2 [BGB324, 1-(6,7-dihydro-5H-benzo[6,7]cyclohepta[1,2-c]pyridazin-3-yl)-N3-((7-(S)-pyrrolidin-1-yl)-6,7,8,9-tetrahydro-5H-benzo[7]annulene-2-yl)-1H-1,2,4-triazole-3,5-diamine] | low | low | high | high | high |  |  |  | 
Nc1nc(Nc2ccc3c(c2)CC[C@@H](N2CCCC2)CC3)nn1-c1cc2c(nn1)-c1ccccc1CCC2 [BGB324/R428/bemcentinib, bemcentinib] |  |  |  |  |  | 450 | 140 | 1200 | 1800
